Test [1] deals with T1, FLT3 wt (Homo sapiens, UniProt P36888).
T1 construct: purchased Life Technologies PV3182
T1 sequence (P36888 564-993 limits assumed): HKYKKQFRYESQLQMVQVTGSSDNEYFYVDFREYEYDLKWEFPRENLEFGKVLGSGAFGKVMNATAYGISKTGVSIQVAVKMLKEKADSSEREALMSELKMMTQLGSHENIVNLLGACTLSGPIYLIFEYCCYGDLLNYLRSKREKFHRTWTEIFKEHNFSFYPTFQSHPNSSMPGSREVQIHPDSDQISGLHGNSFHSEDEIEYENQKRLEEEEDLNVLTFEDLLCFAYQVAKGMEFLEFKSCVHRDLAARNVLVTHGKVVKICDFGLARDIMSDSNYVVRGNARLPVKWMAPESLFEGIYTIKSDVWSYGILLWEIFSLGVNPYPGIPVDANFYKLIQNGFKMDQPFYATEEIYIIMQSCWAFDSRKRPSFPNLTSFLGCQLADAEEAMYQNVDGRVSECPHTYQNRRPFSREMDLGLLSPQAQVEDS
In words: Lanthascreen TR-FRET enzymatic assay, FLT3. The class given is binding. The following applies: recombinant FLT3, 1 hour at 25° C., 1% DMSO; read-out: Enzymology (IC50) FLT3 wt. As for the experimental part: (§1) Recombinant FLT3 (#PV3182), JAK2 (#PV4210) and JAK3 (#PV3855) enzymes were purchased from Life Technologies. FLT3-ITD (#0778-0000-1) and FLT3^D835Y (#14-610) were respectively purchased from Proquinase and Merck Millipore.
(§2) The assays were conducted in 384-well plates based on Life Technologies Lanthascreen® TR-FRET methodologies.
FLT3 assays: 15 nM of FLT3, 3 nM of the 236 kinase tracker (Life Technologies #PV5592) and 6 nM of the Europium-tagged anti-His Lanthascreen® antibody are mixed into 15 μL total volume reaction mixture.
(§3) IC50s were determined from a 8-point dose-response curve spanning a >1000 fold concentration range using a 10 mM compound solution stock into pure DMSO (Sigma #D8418). The overall DMSO concentrations of tested solutions were 1%.
(§4) IC50s were generated with the software Prism (Graphpad).
A general note: In TR-FRET formats the signal depends on donor and acceptor labels being close together.

The target of test [2] is T2, FLT3-ITD (Homo sapiens, UniProt P36888).
T2 construct: fused on or other part: GST tag (detected with the Europium-tagged anti-GST antibody)
T2 sequence (P36888 1-993): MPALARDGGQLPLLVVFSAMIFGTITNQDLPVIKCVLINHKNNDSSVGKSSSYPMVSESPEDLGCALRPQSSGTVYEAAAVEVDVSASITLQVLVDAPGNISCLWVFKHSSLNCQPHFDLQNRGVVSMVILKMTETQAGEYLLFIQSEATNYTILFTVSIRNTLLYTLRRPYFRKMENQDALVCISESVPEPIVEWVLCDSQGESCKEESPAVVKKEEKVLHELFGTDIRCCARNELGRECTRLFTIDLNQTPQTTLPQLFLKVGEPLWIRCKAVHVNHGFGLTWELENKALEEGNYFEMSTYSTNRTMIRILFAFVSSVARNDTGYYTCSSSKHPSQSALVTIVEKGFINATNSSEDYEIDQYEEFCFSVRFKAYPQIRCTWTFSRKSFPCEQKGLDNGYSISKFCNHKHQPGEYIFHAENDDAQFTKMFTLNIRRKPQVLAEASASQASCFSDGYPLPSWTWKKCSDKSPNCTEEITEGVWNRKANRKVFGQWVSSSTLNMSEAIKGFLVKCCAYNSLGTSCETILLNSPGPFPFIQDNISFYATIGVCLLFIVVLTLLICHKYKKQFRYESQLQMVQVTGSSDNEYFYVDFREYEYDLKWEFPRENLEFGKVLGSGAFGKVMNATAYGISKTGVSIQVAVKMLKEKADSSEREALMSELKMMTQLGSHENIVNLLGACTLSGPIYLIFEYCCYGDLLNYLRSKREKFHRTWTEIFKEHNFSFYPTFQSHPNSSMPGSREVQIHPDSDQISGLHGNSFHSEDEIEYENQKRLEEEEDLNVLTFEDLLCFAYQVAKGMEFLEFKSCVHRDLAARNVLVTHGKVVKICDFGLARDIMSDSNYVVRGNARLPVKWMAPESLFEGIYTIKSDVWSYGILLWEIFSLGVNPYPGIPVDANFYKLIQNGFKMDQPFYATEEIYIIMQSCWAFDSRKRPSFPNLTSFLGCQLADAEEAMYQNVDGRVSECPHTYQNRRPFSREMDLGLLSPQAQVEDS
In words: Lanthascreen TR-FRET enzymatic assay, FLT3-ITD. The class given is binding. To be noted: 1 hour at 25° C., 1% DMSO, read-out: Enzymology (IC50) FLT3-ITD. Here is the method:
as §1, §2
FLT3-ITD or FLT3^D835Y assays: 15 nM of FLT3-ITD or FLT3^D835Y, 3 nM of the 236 kinase tracker (Life Technologies #PV5592) and 6 nM of the Europium-tagged anti-GST Lanthascreen® antibody are mixed into 15 μL total volume reaction mixture.
as §3, §4

The target of test [3] is T3, JAK2 (Homo sapiens, UniProt O60674).
T3 construct: purchased Life Technologies PV4210
T3 sequence (O60674 whole entry): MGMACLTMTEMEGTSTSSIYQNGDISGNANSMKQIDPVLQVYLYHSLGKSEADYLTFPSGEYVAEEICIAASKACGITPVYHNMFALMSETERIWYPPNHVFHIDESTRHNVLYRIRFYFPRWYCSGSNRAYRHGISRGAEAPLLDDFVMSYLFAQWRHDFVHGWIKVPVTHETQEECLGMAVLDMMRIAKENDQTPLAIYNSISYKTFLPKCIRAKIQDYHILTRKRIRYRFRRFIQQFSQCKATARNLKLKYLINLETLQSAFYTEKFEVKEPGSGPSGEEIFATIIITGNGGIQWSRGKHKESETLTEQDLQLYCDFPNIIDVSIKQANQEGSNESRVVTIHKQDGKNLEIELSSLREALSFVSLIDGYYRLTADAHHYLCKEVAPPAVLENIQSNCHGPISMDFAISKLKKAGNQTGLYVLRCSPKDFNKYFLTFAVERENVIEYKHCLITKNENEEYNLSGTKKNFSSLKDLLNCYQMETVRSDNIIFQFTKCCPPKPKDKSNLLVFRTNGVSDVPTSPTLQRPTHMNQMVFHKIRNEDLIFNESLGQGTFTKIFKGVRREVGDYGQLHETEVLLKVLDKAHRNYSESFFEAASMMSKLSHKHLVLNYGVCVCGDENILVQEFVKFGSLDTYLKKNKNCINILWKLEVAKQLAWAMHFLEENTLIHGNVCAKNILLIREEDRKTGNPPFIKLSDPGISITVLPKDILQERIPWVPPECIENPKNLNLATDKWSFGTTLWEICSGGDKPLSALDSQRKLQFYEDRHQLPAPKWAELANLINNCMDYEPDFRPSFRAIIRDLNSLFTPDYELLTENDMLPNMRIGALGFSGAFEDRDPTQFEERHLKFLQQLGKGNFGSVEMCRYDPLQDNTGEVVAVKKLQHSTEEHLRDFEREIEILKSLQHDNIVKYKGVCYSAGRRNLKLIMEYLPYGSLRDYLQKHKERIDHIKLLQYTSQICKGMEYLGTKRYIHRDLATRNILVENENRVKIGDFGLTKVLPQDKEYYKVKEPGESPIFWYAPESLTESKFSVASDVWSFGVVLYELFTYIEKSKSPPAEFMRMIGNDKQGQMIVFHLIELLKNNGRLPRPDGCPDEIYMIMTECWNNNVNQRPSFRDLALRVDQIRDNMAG
In words: Lanthascreen TR-FRET enzymatic assay, JAK2. The class given is binding. The following applies: recombinant JAK2, 1 hour at 25° C., 1% DMSO; read-out: Enzymology (IC50) JAK2. As for the experimental part:
as §1, §2
JAK2 assays: 15 nM of JAK2, 150 nM of the 236 kinase tracker (Life Technologies #PV5592) and 6 nM of the Europium-tagged anti-GST Lanthascreen® antibody are mixed into 15 μL total volume reaction mixture.
as §3, §4

Test [4] concerns MOLM-13 cells. The test is described as follows: Antiproliferative activity assay (ATPLite), MOLM-13. The class given is cell-based. The following applies: Homo sapiens, MOLM-13 (AML, FLT3-ITD), 72 h, read-out: Inhibition of proliferation (EC50) MOLM13. As for the experimental part: Cell lines MV4-11 and MOLM-13 are grown according to conditions depicted in Table 2 following the provider recommendations.
Assays are being run into 96-well plates. Cells are passaged at Day 0, seeded at Day 1 and added with increasing quantities of the compounds to evaluate. Plates are incubated for 72 h at 37° C. under a 5% CO2 atmosphere.
Half-logarithmic dilutions from compounds stock solutions in DMSO (Sigma #D8414) were done in order to obtain 0.1% DMSO solutions.
Cellular viability is measured at Day 4 with the ATPLite (Perkin Elmer #6016947) kit.
On the technique in general: Cellular ATP, detected with luciferase, serves as a proxy for viable cell number.

As usually defined, the IC50 is the concentration that inhibits the measured activity by half. With `Cn1c(=O)c2cc(N)ccc2c2nc(Nc3cccc(N)c3)ncc21` [Compound C2, 8-amino-2-((3-aminophenyl)amino)-5-methylpyrimido[5,4-c]isoquinolin-6(5H)-one], the figures for the concentration for half-maximal inhibition (IC50) in test [1], in test [2] and in test [3] were 25 to 100 nM, below 25 nM and 25 to 100 nM, respectively. The EC50 in test [4] lay in the range of 25 to 100 nM.

For the molecule `CN1CCN(c2ccc(Nc3ncc4c(n3)c3ccc(N)cc3c(=O)n4C)cc2)CC1` [Compound C4, 8-amino-5-methyl-2-((4-(4-methylpiperazin-1-yl)phenyl)amino)pyrimido[5,4-c]isoquinolin-6(5H)-one], the results for the IC50 in test [1], in test [2] and in test [3] were 25 to 100 nM, below 25 nM and 100 to 1000 nM, respectively. In addition, the EC50 in test [4] is below 25 nM.

For `CN1CCN(c2cccc(Nc3ncc4c(n3)c3ccc(N)cc3c(=O)n4C)c2)CC1` [Compound C6, 8-amino-5-methyl-2-((3-(4-methylpiperazin-1-yl)phenyl)amino)pyrimido[5,4-c]isoquinolin-6(5H)-one], the half-maximal inhibitory concentration (IC50) in test [1] is 25 to 100 nM; in test [2], below 25 nM; in test [3], 100 to 1000 nM. The EC50 in test [4] was 25 to 100 nM.

Consider `COc1cc2c(cc1N)c(=O)n(C)c1cnc(Nc3ccc(N4CCN(C)CC4)cc3)nc21` [Compound C10, 8-amino-9-methoxy-5-methyl-2-((4-(4-methylpiperazin-1-yl)phenyl)amino) pyrimido[5,4-c]isoquinolin-6(5H)-one], for which the half-inhibitory concentration (IC50) in test [1] is 25 to 100 nM; in test [2] it was below 25 nM; in test [3] it was 100 to 1000 nM. In addition, the EC50 in test [4] lay in the range of 100 to 1000 nM.

For the molecule `Cn1c(=O)c2cc(N)ccc2c2nc(Nc3ccc(F)c(N)c3)ncc21` [Compound C22, 8-amino-2-((3-amino-4-fluorophenyl)amino)-5-methylpyrimido[5,4-c]isoquinolin-6(5H)-one], the figures for the IC50 in test [1], in test [2] and in test [3] were 100 to 1000 nM, below 25 nM and 100 to 1000 nM, respectively. In test [4], the EC50 is 100 to 1000 nM.

As for `COc1cc2c(cc1N)c(=O)n(C)c1cnc(Nc3cc(N)cc(F)c3)nc21` [Compound C26, 8-amino-2-((3-amino-5-fluorophenyl)amino)-9-methoxy-5-methylpyrimido [5,4-c]isoquinolin-6(5H)-one], the half-inhibitory concentration (IC50) in test [1] was 100 to 1000 nM; in test [2], 25 to 100 nM; in test [3], 100 to 1000 nM. For the same molecule, in test [4], the EC50 was 25 to 100 nM.

As for `COc1cc2c(cc1N)c(=O)n(C)c1cnc(Nc3ccc(F)c(N)c3)nc21` [Compound C28, 8-amino-2-((3-amino-4-fluorophenyl)amino)-9-methoxy-5-methylpyrimido [5,4-c]isoquinolin-6(5H)-one], the IC50 is 100 to 1000 nM in test [1], below 25 nM in test [2] and 100 to 1000 nM in test [3]. Besides, in test [4], the EC50 was in the range of 100 to 1000 nM.

Turning to `Cn1c(=O)c2cc(N)ccc2c2nc(Nc3ccc(OCCN4CCCC4)cc3)ncc21` [Compound C34, 8-amino-5-methyl-2-((4-(2-(pyrrolidin-1-yl)ethoxy)phenyl)amino)pyrimido[5,4-c]isoquinolin-6(5H)-one], the figures for the half-inhibitory concentration (IC50) in test [1], in test [2] and in test [3] were 25 to 100 nM, below 25 nM and 100 to 1000 nM, respectively. Besides, in test [4], the EC50 is 100 to 1000 nM.

With `COc1cc2c(cc1N)c(=O)n(C)c1cnc(Nc3ccc(OCCN4CCCC4)cc3)nc21` [Compound C42, 8-amino-9-methoxy-5-methyl-2-((4-(2-(pyrrolidin-1-yl)ethoxy)phenyl)amino) pyrimido[5,4-c]isoquinolin-6(5H)-one], the half-maximal inhibitory concentration (IC50) was 100 to 1000 nM in test [1], below 25 nM in test [2] and 100 to 1000 nM in test [3]. Moreover, the EC50 in test [4] fell in the range of 100 to 1000 nM.

These data come from patent US9944641B2, “Isoquinolinone derivatives useful in the treatment of cancer” (PIERRE FABRE MEDICAMENT, priority 2014, dated 2018).
